Experimental data published in ChEMBL document CHEMBL1151192, “Phorbasterones A-D, cytotoxic nor-ring A steroids from the sponge Phorbas amaranthus” (J Nat Prod, 2004).
Converted amounts (≈) assume the structure as drawn.

System: HCT-116
Test: Cytotoxicity against human HCT116 cells after 72 hrs by MTS assay
Assay type: functional, cell-based
Conditions: HCT-116, 72 h

| Structure (SMILES) | IC50 |
| --- | --- |
| CCC(/C=C/[C@@H](C)[C@H]1CC[C@H]2[C@@H]3CC=C4C(=O)[C@](O)(C(=O)OC)C[C@]4(C)[C@H]3CC[C@]12C)C(C)C (mixture of isomers) [PHORBASTERONE C] | 1 µg/mL |
| COC(=O)[C@]1(O)C[C@@]2(C)C(=CC[C@H]3[C@@H]4CC[C@H]([C@H](C)CCCC(C)C)[C@@]4(C)CC[C@@H]32)C1=O [PHORBASTERONE B] | 1 µg/mL (≈ 2.25 µM) |
| CCC(CC[C@@H](C)[C@H]1CC[C@H]2[C@@H]3CC=C4C(=O)[C@](O)(C(=O)OC)C[C@]4(C)[C@H]3CC[C@]12C)C(C)C (mixture of isomers) [PHORBASTERONE D] | 1 µg/mL |
| COC(=O)[C@]1(O)C[C@@]2(C)C(=CC[C@H]3[C@@H]4CC[C@H]([C@H](C)/C=C/C(C)C(C)C)[C@@]4(C)CC[C@@H]32)C1=O (some centres undefined) [PHORBASTERONE A] | 1 µg/mL (≈ 2.19 µM) |
